Key:
Type in all cases: functional
[1] = Growth inhibition of human MOLT4 cells assessed as cell growth at 15 ug/ml; details: MOLT-4, read-out: Activity
T47D = experiment: Growth inhibition of human T47D cells assessed as cell growth at 15 ug/ml; details: read-out: Activity
NCI-H522 = experiment: Growth inhibition of human NCI-H522 cells assessed as cell growth at 15 ug/ml; details: read-out: Activity
[2] = Growth inhibition of human LOXIMVI cells assessed as cell growth at 15 ug/ml; details: LOX IMVI, read-out: Activity

Compound | growth at 15 µg/mL [1] | growth at 15 µg/mL (T47D) | growth at 15 µg/mL (NCI-H522) | growth at 15 µg/mL [2]
CC(C)OC(=O)[C@H](C)NP(=O)(OC[C@H]1O[C@@H](n2cnc3sc4c(=O)[nH]c(N)nc4c32)C(F)(F)[C@@H]1OP(=O)(N[C@@H](C)C(=O)OC(C)C)Oc1ccccc1)Oc1ccccc1 (some centres not stated) | 109% | 87.2% | 77.7% | 102%
Nc1nc2c(sc3ncn([C@@H]4O[C@H](CO)[C@@H](O)C4(F)F)c32)c(=O)[nH]1 | 13.9% | 10.5% | 34% | 25.6%
CC(C)OC(=O)[C@H](C)NP(=O)(OC[C@H]1O[C@@H](n2cnc3sc4c(=O)[nH]c(N)nc4c32)C(F)(F)[C@@H]1O)Oc1ccccc1 (some centres not stated) | 94% | 64.5% | 65.6% | 74.1%
